Like-named read-outs stand apart in the source and are kept apart here.
Test system: RPTEC/TERT1 cells
Format: cell-based, human
Protocol: For high content imaging, NRK-52E and RPTEC/TERT1 cells were cultivated in µ-clear half well area microtiter plates (Greiner) according to the protocol described for the cytotoxicity assay with slight modification. Briefly, NRK-52E cells were seeded at 5,000 cells in 100 µL growth medium per well and were incubated under standard growth conditions for 48 h prior to treatment. RPTEC/TERT1 cells were seeded at 15,000 cells in 100 µL growth medium per well and incubated under standard growth conditions for 7–8 days, until cells reached confluence and started to differentiate. This was indicated by the formation of three-dimensional structures referred to as domes which were identified by regular microscopic inspection of the plates. Only differentiated cell cultures with detectable domes were assayed. Cells of both cell lines were treated with serially diluted Polymyxin B sulfate (concentration range 7.8 to 2,000 µM) for 1, 2, 4, 6, or up to 24 h. The assay was carried out on three biological replicates defined as three different non-consecutive passages of the cell culture. Each biological replicate at each treatment concentration was assayed in triplicate wells per plate.
Following treatment, cells were stained with two different combinations of fluorescent dyes: NRK-52E cells with 50 pg/μL LysoView™ 633 (Biotium) and 1 µM SYTO 16 (Thermo Scientific), respectively, for lysosomes and nuclei; RPTEC/TERT1 cells with 10 nM LysoTracker™ Red (Thermo Scientific) and 10 ng/μL Hoechst 33342 (Merck-Sigma Aldrich), respectively, for lysosomes and nuclei. For each cell line a staining solution was obtained by mixing the lysosomes and nuclei dyes in cell culture medium at the concentrations indicated above. The cells were stained by replenishing the medium for 100 µL of staining solution per well followed by incubation at 37°C and 5% CO2 for 30 min before imaging.
Images were acquired with a fully automated fluorescence confocal Opera™ QEHS system (PerkinElmer, United Kingdom) using a ×40 air UPlanApo objective (Olympus) with 0.85 numerical aperture. NRK-52E cells stained with the dyes SYTO 16 and LysoView™633 were imaged with the laser lines 488 and 635 nm, using a 488/561/635 nm primary dichroic mirror, a 510 nm long pass (LP) detection dichroic mirror, a 540/75 nm band pass (BP) emission filter for SYTO 16 and a 690/50 nm BP emission filter for LysoView™ 633. RPTEC/TERT1 cells stained with the dyes Hoechst 33342 and LysoTracker™Red were imaged with the laser lines 405 and 561 nm, using a 405/561/635 nm primary dichroic mirror, a 580 nm LP detection dichroic mirror, a 450/50 nm BP emission filter for Hoechst 33342 and a 600/40 nm BP emission filter for LysoTracker™Red. To prevent cross talk of the fluorescent signals, each dye was imaged consecutively using the combination of lasers and filters described above. The settings for laser power, exposure time and focal height were kept constant for each cell line across all the experiments. For NRK-52E cells images were acquired at 25 randomly distributed positions in a well at a single focal plane whereas for RPTEC/TERT1 cells due to the development of dome structures images were acquired at 9 random positions at three focal planes each 1 μm apart.
The images were analyzed by custom-made image analysis scripts either with the imaging analysis software Acapella (version 2.8 PerkinElmer) or Columbus (version 2.4.0 PerkinElmer). The scripts included modules for the identification and counting of the cell nuclei to extrapolate the number of cells per well, for definition of a cytoplasm surrounding the nucleus, for identification and counting of the lysosome vesicles within the cytoplasm. Additional cellular parameters included the nuclei size, intensity, the cell size (cell area), the lysosome size (lysosome area), intensity and the number of lysosomes normalized by the cell area to compensate for difference in size of the cells.

[1] = RPTEC/TERT1, 250 µM, high content imaging

Substance	Effect on lysosomal endpoints in high content screening (RPTEC/TERT1, 24 h, 7.8 to 2000 µM (smaller range for CdCl2 and 4-aminophenol), triplicate experiments, Figure S1)	Treatment time at which nuclear changes were first recorded (RPTEC/TERT1, 125 µM, high content imaging (nuclei area, nuclei intensity)) [h]	Treatment time at which lysosomal effects were measurable (RPTEC/TERT1, 125 µM, high content imaging, three biological replicates in triplicate wells) [h]	Treatment time at which lysosomal effects were measurable [1] [h]	Treatment time at which nuclear changes were first recorded [1] [h]	Cytotoxicity in high content screening (RPTEC/TERT1, 24 h treatment, Figure S1)
Colistin	most prominent effects on lysosomal endpoints					
Polymyxin B		4	1	1	2	severe cytotoxicity

Reference: publication PMC9061999, “Application of the Adverse Outcome Pathway Concept to In Vitro Nephrotoxicity Assessment: Kidney Injury due to Receptor-Mediated Endocytosis and Lysosomal Overload as a Case Study” (Frontiers in Toxicology, 2022)
